In general, EC50 refers to the concentration at which the effect is half-maximal.

For this assay, the target named is T1, Orexin/Hypocretin receptor type 1 (Homo sapiens, UniProt O43613).
T1 sequence (O43613 whole entry): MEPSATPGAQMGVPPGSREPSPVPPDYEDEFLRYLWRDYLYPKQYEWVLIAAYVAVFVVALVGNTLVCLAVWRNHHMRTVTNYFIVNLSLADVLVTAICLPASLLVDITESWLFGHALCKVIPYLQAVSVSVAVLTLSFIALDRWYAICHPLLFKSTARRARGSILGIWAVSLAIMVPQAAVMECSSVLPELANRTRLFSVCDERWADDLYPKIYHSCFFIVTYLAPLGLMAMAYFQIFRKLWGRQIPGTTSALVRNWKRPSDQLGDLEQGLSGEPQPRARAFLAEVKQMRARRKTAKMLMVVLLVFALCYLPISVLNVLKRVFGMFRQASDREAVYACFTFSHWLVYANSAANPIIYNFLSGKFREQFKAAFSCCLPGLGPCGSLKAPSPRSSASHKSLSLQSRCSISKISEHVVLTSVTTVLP
As to the kind of experiment: Effective agonist concentration to human orexin receptor type 1 determined using the Xlfit program. The class given is functional.

Non-standard residues stand in square brackets, D forms with d. Residues, ends and D or L forms follow the SMILES beside them. pGlu = O=C1CC[C@@H](C(=O)O)N1; Abu = CC[C@H](N)C(=O)O

In turn, `CC[C@H](C)[C@H](NC(=O)CNC(=O)[C@H](C)NC(=O)[C@H](C)NC(=O)[C@H](Cc1c[nH]cn1)NC(=O)[C@H](CC(N)=O)NC(=O)CNC(=O)[C@H](CO)NC(=O)[C@H](C)NC(=O)[C@H](CCC(N)=O)NC(=O)[C@H](CC(C)C)NC(=O)[C@H](CC(C)C)NC(=O)[C@H](CCCNC(=N)N)NC(=O)[C@H](C)NC(=O)[C@H](CC(C)C)NC(=O)[C@H](CCCNC(=N)N)NC(=O)CNC(=O)[C@H](CCC(N)=O)NC(=O)[C@H](CC(C)C)NC(=O)CN)C(=O)N[C@@H](CC(C)C)C(=O)N[C@H](C(=O)N[C@@H](CCSC)C(=O)O)[C@@H](C)O` (H-GLQGRLARLLQASGNHAAGILTM-OH) gave an EC50 of 1.3 µM. This lies in the single-digit micromolar range.

For `CC[C@H](C)[C@H](NC(=O)CNC(=O)[C@H](C)NC(=O)[C@H](C)NC(=O)[C@H](Cc1cnc[nH]1)NC(=O)[C@H](CC(N)=O)NC(=O)CNC(=O)[C@H](CO)NC(=O)[C@H](C)NC(=O)[C@H](CCC(N)=O)NC(=O)[C@H](CC(C)C)NC(=O)[C@H](CC(C)C)NC(=O)[C@H](CCCNC(=N)N)NC(=O)[C@H](CCC(N)=O)NC(=O)[C@H](CC(C)C)NC(=O)[C@H](CCCNC(=N)N)NC(=O)CNC(=O)[C@H](CCC(N)=O)NC(=O)[C@@H]1CCCN1C(=O)CN)C(=O)N[C@@H](CC(C)C)C(=O)N[C@H](C(=O)N[C@@H](CCSC)C(N)=O)[C@@H](C)O` (H-GPQGRLQRLLQASGNHAAGILTM-NH2), the EC50 was found to be 1.7 µM.

As to `CC[C@H](C)[C@H](NC(=O)CNC(=O)[C@H](C)NC(=O)[C@H](C)NC(=O)[C@H](Cc1c[nH]cn1)NC(=O)[C@H](CC(N)=O)NC(=O)CNC(=O)[C@H](CO)NC(=O)[C@H](C)NC(=O)[C@H](CCC(N)=O)NC(=O)[C@H](CC(C)C)NC(=O)[C@H](CC(C)C)NC(=O)[C@H](CCCN=C(N)N)NC(=O)[C@H](CCC(N)=O)NC(=O)[C@H](CC(C)C)NC(=O)[C@H](CCCN=C(N)N)NC(=O)[C@H](C)NC(=O)[C@H](CCC(N)=O)NC(=O)[C@H](CC(C)C)NC(=O)CN)C(=O)N[C@@H](CC(C)C)C(=O)N[C@H](C(=O)N[C@@H](CCSC)C(N)=O)[C@@H](C)O` (H-GLQARLQRLLQASGNHAAGILTM-NH2), a half-maximal effect (EC50) was put at 2.3 µM.

On to `CC[C@H](NC(=O)[C@H](CO)NC(=O)[C@H](CS)NC(=O)[C@@H](NC(=O)[C@H](CCCCN)NC(=O)[C@H](CCC(N)=O)NC(=O)[C@H](CCCN=C(N)N)NC(=O)[C@H](CC)NC(=O)[C@H](CS)NC(=O)[C@H](CC(=O)O)NC(=O)[C@@H]1CCCN1C(=O)[C@H](CC(C)C)NC(=O)[C@@H]1CCCN1C(=O)[C@@H]1CCC(=O)N1)[C@@H](C)O)C(=O)N[C@@H](CCCN=C(N)N)C(=O)N[C@@H](CC(C)C)C(=O)N[C@@H](Cc1ccc(O)cc1)C(=O)N[C@@H](CCC(=O)O)C(=O)N[C@@H](CC(C)C)C(=O)N[C@@H](CC(C)C)C(=O)N[C@@H](Cc1c[nH]cn1)C(=O)NCC(=O)N[C@@H](C)C(=O)NCC(=O)N[C@@H](CC(N)=O)C(=O)N[C@@H](Cc1c[nH]cn1)C(=O)N[C@@H](C)C(=O)N[C@@H](C)C(=O)NCC(=O)N[C@H](C(=O)N[C@@H](CC(C)C)C(=O)N[C@H](C(=O)N[C@@H](CC(C)C)C(=O)O)[C@@H](C)O)[C@@H](C)CC` ([pGlu]PLPDC[Abu]RQKTCS[Abu]RLYELLHGAGNHAAGILTL-OH), for which the EC50 is 1.34 µM.

Take `CC[C@H](C)[C@H](NC(=O)CNC(=O)[C@H](C)NC(=O)[C@H](C)NC(=O)[C@H](Cc1c[nH]cn1)NC(=O)[C@H](CC(N)=O)NC(=O)CNC(=O)[C@H](C)NC(=O)[C@H](C)NC(=O)[C@H](CCC(N)=O)NC(=O)[C@H](CC(C)C)NC(=O)[C@H](CC(C)C)NC(=O)[C@H](CCCN=C(N)N)NC(=O)[C@H](CCC(N)=O)NC(=O)[C@H](CC(C)C)NC(=O)[C@H](CCCN=C(N)N)NC(=O)CNC(=O)[C@H](CCC(N)=O)NC(=O)[C@H](CC(C)C)NC(=O)CN)C(=O)N[C@@H](CC(C)C)C(=O)N[C@H](C(=O)N[C@@H](CCSC)C(=O)O)[C@@H](C)O` (H-GLQGRLQRLLQAAGNHAAGILTM-OH): it took 1.46 µM to reach a half-maximal effect (EC50).

Regarding `CC[C@H](C)[C@H](NC(=O)CNC(=O)[C@H](C)NC(=O)[C@H](C)NC(=O)[C@H](Cc1c[nH]cn1)NC(=O)[C@H](CC(N)=O)NC(=O)CNC(=O)[C@H](CO)NC(=O)[C@H](C)NC(=O)[C@H](CCC(N)=O)NC(=O)[C@H](CC(C)C)NC(=O)[C@H](CC(C)C)NC(=O)[C@H](CCCNC(=N)N)NC(=O)[C@H](CCC(N)=O)NC(=O)[C@H](C)NC(=O)[C@H](CCCNC(=N)N)NC(=O)CNC(=O)[C@H](CCC(N)=O)NC(=O)[C@H](CC(C)C)NC(=O)CN)C(=O)N[C@@H](CC(C)C)C(=O)N[C@H](C(=O)N[C@@H](CCSC)C(=O)O)[C@@H](C)O` (H-GLQGRAQRLLQASGNHAAGILTM-OH), the EC50 was 11.4 µM.

`CC[C@H](C)[C@H](NC(=O)CNC(=O)[C@H](C)NC(=O)[C@H](C)NC(=O)[C@H](Cc1c[nH]cn1)NC(=O)[C@H](CC(N)=O)NC(=O)CNC(=O)[C@H](C)NC(=O)CNC(=O)[C@H](Cc1c[nH]cn1)NC(=O)[C@H](CC(C)C)NC(=O)[C@H](CC(C)C)NC(=O)[C@H](CCC(=O)O)NC(=O)[C@H](Cc1ccc(O)cc1)NC(=O)[C@H](CC(C)C)NC(=O)[C@H](CCCN=C(N)N)NC(=O)[C@H](CS)NC(=O)[C@H](CO)NC(=O)[C@H](CS)NC(=O)[C@@H](NC(=O)[C@H](CCCCN)NC(=O)[C@H](CCC(N)=O)NC(=O)[C@H](CCCN=C(N)N)NC(=O)[C@H](CS)NC(=O)[C@H](CS)NC(=O)[C@H](CC(=O)O)NC(=O)[C@@H]1CCCN1)[C@@H](C)O)C(=O)N[C@@H](CC(C)C)C(=O)N[C@H](C(=O)N[C@@H](CC(C)C)C(N)=O)[C@@H](C)O` (H-PDCCRQKTCSCRLYELLHGAGNHAAGILTL-NH2): a half-maximal effect (EC50) was put at 0.64 µM.

`CC[C@H](C)[C@H](NC(=O)CNC(=O)[C@H](C)NC(=O)[C@H](C)NC(=O)[C@H](Cc1cnc[nH]1)NC(=O)[C@H](CC(N)=O)NC(=O)CNC(=O)[C@H](CO)NC(=O)[C@H](C)NC(=O)[C@H](CCC(N)=O)NC(=O)[C@H](CC(C)C)NC(=O)[C@H](CC(C)C)NC(=O)[C@H](CCCNC(=N)N)NC(=O)[C@H](CCC(N)=O)NC(=O)[C@H](CC(C)C)NC(=O)[C@H](CCCNC(=N)N)NC(=O)CNC(=O)[C@H](C)NC(=O)[C@H](CC(C)C)NC(=O)CN)C(=O)N[C@@H](CC(C)C)C(=O)N[C@H](C(=O)N[C@@H](CCSC)C(N)=O)[C@@H](C)O` (H-GLAGRLQRLLQASGNHAAGILTM-NH2): a half-maximal effect (EC50) was put at 1.64 µM.

`CC[C@H](C)[C@H](NC(=O)CNC(=O)[C@H](C)NC(=O)[C@H](C)NC(=O)[C@H](Cc1c[nH]cn1)NC(=O)[C@H](CC(N)=O)NC(=O)CNC(=O)[C@H](CO)NC(=O)[C@H](C)NC(=O)[C@H](CCC(N)=O)NC(=O)[C@H](CC(C)C)NC(=O)[C@H](CC(C)C)NC(=O)[C@H](CCCN=C(N)N)NC(=O)[C@H](CCC(N)=O)NC(=O)[C@H](CC(C)C)NC(=O)[C@H](CCCN=C(N)N)NC(=O)[C@@H]1CCCN1C(=O)[C@H](CCC(N)=O)NC(=O)[C@H](CC(C)C)NC(=O)CN)C(=O)N[C@@H](CC(C)C)C(=O)N[C@H](C(=O)N[C@@H](CCSC)C(N)=O)[C@@H](C)O` (H-GLQPRLQRLLQASGNHAAGILTM-NH2) showed an EC50 of 4.46 µM.

`CC[C@H](C)[C@H](NC(=O)[C@H](C)NC(=O)[C@H](C)NC(=O)[C@H](C)NC(=O)[C@H](Cc1cnc[nH]1)NC(=O)[C@H](CC(N)=O)NC(=O)CNC(=O)[C@H](CO)NC(=O)[C@H](C)NC(=O)[C@H](CCC(N)=O)NC(=O)[C@H](CC(C)C)NC(=O)[C@H](CC(C)C)NC(=O)[C@H](CCCNC(=N)N)NC(=O)[C@H](CCC(N)=O)NC(=O)[C@H](CC(C)C)NC(=O)[C@H](CCCNC(=N)N)NC(=O)CNC(=O)[C@H](CCC(N)=O)NC(=O)[C@H](CC(C)C)NC(=O)CN)C(=O)N[C@@H](CC(C)C)C(=O)N[C@H](C(=O)N[C@@H](CCSC)C(=O)O)[C@@H](C)O` (H-GLQGRLQRLLQASGNHAAAILTM-OH) showed an EC50 of over 1000 µM.

Compound `CC[C@H](C)[C@H](NC(=O)CNC(=O)[C@H](C)NC(=O)[C@H](C)NC(=O)[C@H](Cc1c[nH]cn1)NC(=O)[C@H](CC(N)=O)NC(=O)[C@H](C)NC(=O)[C@H](CO)NC(=O)[C@H](C)NC(=O)[C@H](CCC(N)=O)NC(=O)[C@H](CC(C)C)NC(=O)[C@H](CC(C)C)NC(=O)[C@H](CCCN=C(N)N)NC(=O)[C@H](CCC(N)=O)NC(=O)[C@H](CC(C)C)NC(=O)[C@H](CCCN=C(N)N)NC(=O)CNC(=O)[C@H](CCC(N)=O)NC(=O)[C@H](CC(C)C)NC(=O)CN)C(=O)N[C@@H](CC(C)C)C(=O)N[C@H](C(=O)N[C@@H](CCSC)C(=O)O)[C@@H](C)O` (H-GLQGRLQRLLQASANHAAGILTM-OH) had an EC50 of 2.21 µM.

In the case of `CC[C@H](C)[C@H](NC(=O)CNC(=O)[C@H](C)NC(=O)[C@H](C)NC(=O)[C@@H](N)Cc1cnc[nH]1)C(=O)N[C@@H](CC(C)C)C(=O)N[C@H](C(=O)N[C@@H](CC(C)C)C(N)=O)[C@@H](C)O` (H-HAAGILTL-NH2), the EC50 was over 1000 µM.

In turn, `CC[C@H](C)[C@H](NC(=O)CNC(=O)[C@H](C)NC(=O)[C@H](C)NC(=O)[C@H](Cc1cnc[nH]1)NC(=O)[C@H](CC(N)=O)NC(=O)CNC(=O)[C@H](CO)NC(=O)[C@H](C)NC(=O)[C@H](CCC(N)=O)NC(=O)[C@H](CC(C)C)NC(=O)[C@@H](N)CC(C)C)C(=O)N[C@@H](CC(C)C)C(=O)N[C@H](C(=O)N[C@@H](CCSC)C(N)=O)[C@@H](C)O` (H-LLQASGNHAAGILTM-NH2) showed an EC50 of over 1000 µM.

Consider `CC[C@H](C)[C@H](NC(=O)CNC(=O)[C@H](C)NC(=O)[C@H](C)NC(=O)[C@H](Cc1cnc[nH]1)NC(=O)[C@H](CC(N)=O)NC(=O)CNC(=O)[C@H](CO)NC(=O)[C@H](C)NC(=O)[C@H](CCC(N)=O)NC(=O)[C@H](CC(C)C)NC(=O)[C@H](CC(C)C)NC(=O)[C@@H]1CCCN1C(=O)[C@H](CCC(N)=O)NC(=O)[C@H](CC(C)C)NC(=O)[C@H](CCCNC(=N)N)NC(=O)CNC(=O)[C@H](CCC(N)=O)NC(=O)[C@H](CC(C)C)NC(=O)CN)C(=O)N[C@@H](CC(C)C)C(=O)N[C@H](C(=O)N[C@@H](CCSC)C(N)=O)[C@@H](C)O` (H-GLQGRLQPLLQASGNHAAGILTM-NH2), for which the EC50 is 17.8 µM.

The values above are taken from ChEMBL document CHEMBL1148480, “Structure-activity studies of orexin a and orexin B at the human orexin 1 and orexin 2 receptors led to orexin 2 receptor selective and orexin 1 receptor preferring ligands” (J Med Chem, 2004).
